Test results reported in US20090123501A1, “INHIBITION OF THE SH2-DOMAIN CONTAINING PROTEIN TYR-PHOSPHATASE, SHP-1, TO ENHANCE VACCINES” (Baylor College of Medicine, priority 2007, published 2009).

Assays:
TRAMP C2 tumors = assay: DC vaccination of mice bearing ectopic TRAMP C2 tumors; format: in vivo, C57BL/6 mice; conditions: by viral transduction, pooled across all peptide treatments, vs untreated mice
Protocol: BMDCs were prepared as described above, transduced with either Ad5-SHP-1-shRNA or the control Ad5-scrambled-shRNA at 40,000 viral particles/cell, and pulsed with one of the six peptides listed in Table 1 (OVA, an irrelevant epitope to TRAMP 2 tumors, served as a negative control peptide) or a lysate of TRAMP C2 cells as a positive control antigen. 6-8 week C57BL/6 mice, bearing TRAMP C2 tumors (7×10^6 cells injected s.c. on the dorsal flank three days prior to vaccination), were given a single i.p. vaccination with 2×10^6 treated DCs or left untreated. Tumors were measured (length and width using calipers) every 2-4 days until termination of the study and tumor volume was estimated using the formula: Tumor volume (mm3)=x^2y×0.5236, where x is the smaller tumor dimension, and y is the larger tumor dimension. A-G) TRAMP tumor growth curves for vaccines loaded with the indicated peptides. Error bars represent the standard error of the mean of 5 mice vaccinated in each treatment. […] H-I) ANOVA analysis of peptide function and SHP-1 function. Data represent the averages 10 mice per peptide treatment and 5 mice in the no treatment control group for H) and 35 mice per viral transduction treatment and 5 mice in the no treatment control group for I). The green diamonds represent the mean and 95% confidence interval for each group from the ANOVA. The black line is the mean of means for the study and red symbols indicate significant differences (p<0.05 by Tukey-Kramer HSD multiple comparisons test).
To determine if there was a significant difference between the various peptides used in these DC vaccinations, mice were pooled across viral treatments (Ad5-SHP-1 shRNA or Ad5-scrambled-shRNA) employing the same peptide. An ANOVA for differences in mean tumor volume at day 48 post-vaccination (the time at which the majority of the vaccinated tumor growth curves change slope) and Tukey-Kramer HSD multiple comparisons test.
Next experiments were conducted to determine if vaccines transduced with Ad5-SHP-1-shRNA inhibited tumor growth compared to transduction with Ad5-scrambled-shRNA or no vaccine treatment, irrespective of what peptide was used in the vaccine.

BMDCs = assay: In vitro transwell DC migration to CCL21; format: cell-based, C57BL/6 mice; conditions: BMDCs transduced 48 hours, 100 ng/mL CCL21, 3 hours transwell
Protocol: Primary bone marrow-derived dendritic cells (BMDCs) were prepared from wild type mice in the following manner: Bone marrow cells were flushed from the femurs and tibias of C57BL/6 mice and cultured for 6 days in RPMI media supplemented with 10% FBS, 10 ng/mL IL-4 and 10 ng/mL GMCSF along with antibiotics. On day 6, dendritic cells (DCs) were either purified by magnetic bead assisted cell sorting (MACS; Miltenyi Biotec, Auburn, Calif.) prior to adenoviral transduction, or used as unpurified bulk DCs that were then transduced with adenovirus.
For DCs to initiate an immune response, they must capture antigen in the periphery and then migrate to the lymph nodes where they stimulate antigen specific T cells. To determine if SHP-1 signaling could affected the ability of DCs to migrate to draining lymph nodes, trafficking studies were performed both in vitro and in vivo. For the in vitro DC migration assays, unpurified bulk BMDCs were transduced with either Ad5-SHP1-shRNA or Ad5-scrambled-shRNA for 48 hours or left untreated. Half of the untreated cells were treated with 1 μg/mL LPS for 24 hours. Cells were collected and washed in serum-free media (SFM) and resuspended at 5×10^6 cells/mL. […] BMDCs migrating into the lower chamber were counted using a hematocytometer.

CACCGGAGCATGACACAGCAGAATACGAATATTCTGCTGTGTCATGCTCC (chemistry not given here) [Ad5-SHP-1-shRNA]
TRAMP C2 tumor volume (ANOVA) (TRAMP C2 tumors): significantly lower tumor volumes
migration index (migration to CCL21 relative to migration without CCL21) (BMDCs): not significantly different from that of untreated cells
